Assays:
[1] = DRUGMATRIX: Tumor Necrosis Factor (TNF), Non-Selective radioligand binding (ligand: [125I] TNF-alpha); type: cell membranes, Membrane; settings: u-937; Not Active = under 50% inhibition at 10 µM
D(3) dopamine receptor = D(3) dopamine receptor (Homo sapiens, UniProt P35462); experiment: DRUGMATRIX: Dopamine D3 radioligand binding (ligand: [3H] Spiperone); type: cell membranes, CHO, Membrane; settings: cho
Nitric oxide synthase 1 = Nitric oxide synthase 1 (Rattus norvegicus, UniProt P29476); type: tissue-based, Cerebellum; further: in other assays of this panel Not Active means under 50% inhibition at 10 µM
[2] = molecular target: T1, C-C chemokine receptor type 4 (Homo sapiens, UniProt P51679); type: cell membranes, Membrane; settings: chem-1; further: in other assays of this panel Not Active means under 50% inhibition at 10 µM
T1 sequence (P51679 whole entry): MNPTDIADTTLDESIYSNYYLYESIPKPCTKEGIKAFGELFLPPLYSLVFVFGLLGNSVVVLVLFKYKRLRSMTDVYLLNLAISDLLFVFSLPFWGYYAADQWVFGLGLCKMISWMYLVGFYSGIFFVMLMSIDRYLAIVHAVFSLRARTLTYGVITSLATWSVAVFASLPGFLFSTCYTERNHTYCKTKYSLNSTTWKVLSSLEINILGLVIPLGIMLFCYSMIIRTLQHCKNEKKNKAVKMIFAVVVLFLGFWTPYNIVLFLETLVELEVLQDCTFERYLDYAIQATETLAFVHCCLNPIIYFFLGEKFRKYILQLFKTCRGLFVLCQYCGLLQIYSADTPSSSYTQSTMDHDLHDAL

[3] = molecular target: T2, Polyunsaturated fatty acid lipoxygenase ALOX15 (Oryctolagus cuniculus, UniProt P12530); experiment: biochemical; type: tissue-based, Reticulocytes; settings: reticulocytes;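 further: inhibition of 15-lipoxygenase enzyme activity measured with linoleic acid as the substrate; in other assays of this panel Not Active means under 50% inhibition at 10 µM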
T2 sequence (P12530 whole entry): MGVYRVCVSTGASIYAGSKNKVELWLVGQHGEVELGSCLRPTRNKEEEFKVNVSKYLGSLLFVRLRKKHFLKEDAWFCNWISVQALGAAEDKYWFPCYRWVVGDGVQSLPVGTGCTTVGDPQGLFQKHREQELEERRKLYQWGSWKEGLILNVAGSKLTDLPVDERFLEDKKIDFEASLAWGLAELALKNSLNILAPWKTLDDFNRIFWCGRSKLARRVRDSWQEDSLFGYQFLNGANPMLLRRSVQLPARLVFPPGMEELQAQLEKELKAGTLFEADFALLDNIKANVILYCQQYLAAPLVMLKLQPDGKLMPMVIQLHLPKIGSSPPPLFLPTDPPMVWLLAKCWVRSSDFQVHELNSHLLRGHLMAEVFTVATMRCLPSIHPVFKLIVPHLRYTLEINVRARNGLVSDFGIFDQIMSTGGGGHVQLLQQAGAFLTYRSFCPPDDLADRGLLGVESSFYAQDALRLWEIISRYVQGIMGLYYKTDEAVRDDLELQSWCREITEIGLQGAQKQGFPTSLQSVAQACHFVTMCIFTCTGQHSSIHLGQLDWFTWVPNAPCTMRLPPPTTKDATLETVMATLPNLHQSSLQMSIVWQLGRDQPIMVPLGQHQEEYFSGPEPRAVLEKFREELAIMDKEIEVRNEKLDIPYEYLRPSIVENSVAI

[4] = DRUGMATRIX: Phosphodiesterase PDE3 enzyme inhibition (substrate: [3H]cAMP + cAMP); type: tissue-based, Homo sapiens; settings: platelet; Not Active = under 50% inhibition at 10 µM

D(3) dopamine receptor, sequence (P35462 whole entry): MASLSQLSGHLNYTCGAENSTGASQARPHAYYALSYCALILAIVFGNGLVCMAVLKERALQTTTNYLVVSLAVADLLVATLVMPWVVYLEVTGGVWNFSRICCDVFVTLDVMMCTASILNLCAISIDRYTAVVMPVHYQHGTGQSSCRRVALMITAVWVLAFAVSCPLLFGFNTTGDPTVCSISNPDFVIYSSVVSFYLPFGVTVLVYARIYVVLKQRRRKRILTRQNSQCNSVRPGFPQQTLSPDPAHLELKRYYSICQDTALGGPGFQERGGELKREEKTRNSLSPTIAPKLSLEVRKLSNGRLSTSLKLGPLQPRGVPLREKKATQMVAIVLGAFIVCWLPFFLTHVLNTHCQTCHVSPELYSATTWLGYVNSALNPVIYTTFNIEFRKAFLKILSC
Nitric oxide synthase 1, sequence (P29476 whole entry): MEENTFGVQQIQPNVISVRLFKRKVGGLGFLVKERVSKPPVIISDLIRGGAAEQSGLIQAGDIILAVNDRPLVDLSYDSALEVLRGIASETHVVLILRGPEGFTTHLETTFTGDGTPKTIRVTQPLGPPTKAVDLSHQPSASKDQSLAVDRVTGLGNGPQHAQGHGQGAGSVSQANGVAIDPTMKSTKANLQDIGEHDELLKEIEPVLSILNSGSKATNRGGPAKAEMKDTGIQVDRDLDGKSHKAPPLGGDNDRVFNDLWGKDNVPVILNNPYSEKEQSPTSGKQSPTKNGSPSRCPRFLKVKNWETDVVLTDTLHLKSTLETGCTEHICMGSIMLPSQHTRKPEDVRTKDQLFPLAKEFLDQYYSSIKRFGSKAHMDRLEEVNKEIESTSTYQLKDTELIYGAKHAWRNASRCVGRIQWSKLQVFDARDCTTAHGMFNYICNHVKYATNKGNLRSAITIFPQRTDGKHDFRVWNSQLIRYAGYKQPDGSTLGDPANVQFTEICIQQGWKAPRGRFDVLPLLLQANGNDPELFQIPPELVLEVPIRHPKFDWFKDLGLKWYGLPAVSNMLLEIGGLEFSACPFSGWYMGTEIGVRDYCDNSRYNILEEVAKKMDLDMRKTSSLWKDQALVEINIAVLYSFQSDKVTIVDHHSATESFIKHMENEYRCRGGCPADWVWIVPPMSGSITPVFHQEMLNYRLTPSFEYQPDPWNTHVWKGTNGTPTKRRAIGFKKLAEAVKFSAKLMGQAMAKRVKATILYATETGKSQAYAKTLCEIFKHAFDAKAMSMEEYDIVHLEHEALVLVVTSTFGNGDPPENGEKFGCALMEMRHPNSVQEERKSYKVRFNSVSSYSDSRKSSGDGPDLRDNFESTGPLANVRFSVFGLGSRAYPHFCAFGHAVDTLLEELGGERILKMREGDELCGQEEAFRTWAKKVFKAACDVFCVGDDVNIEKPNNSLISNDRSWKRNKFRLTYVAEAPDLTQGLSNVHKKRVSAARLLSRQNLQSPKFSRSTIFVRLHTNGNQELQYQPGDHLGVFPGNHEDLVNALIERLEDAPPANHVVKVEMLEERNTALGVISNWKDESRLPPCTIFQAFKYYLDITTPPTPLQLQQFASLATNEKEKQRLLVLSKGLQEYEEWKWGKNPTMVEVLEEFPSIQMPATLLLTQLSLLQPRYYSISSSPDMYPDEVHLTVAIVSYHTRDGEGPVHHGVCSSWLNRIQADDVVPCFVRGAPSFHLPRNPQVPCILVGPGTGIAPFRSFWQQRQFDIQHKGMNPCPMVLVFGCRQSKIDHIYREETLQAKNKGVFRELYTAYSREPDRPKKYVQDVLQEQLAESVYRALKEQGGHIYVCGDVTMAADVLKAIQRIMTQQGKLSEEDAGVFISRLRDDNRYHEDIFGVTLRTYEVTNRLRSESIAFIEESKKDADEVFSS

CNS(=O)(=O)Cc1ccc2[nH]cc(CCN(C)C)c2c1
Not Active: IC50 [1] | Ki [1] | IC50 (D(3) dopamine receptor) | IC50 (Nitric oxide synthase 1) | IC50 [2] | IC50 [3] | IC50 [4] | Ki [4]

CCCc1nn(C)c2c(=O)[nH]c(-c3cc(S(=O)(=O)N4CCN(C)CC4)ccc3OCC)nc12
Not Active: IC50 [1] | Ki [1] | IC50 (D(3) dopamine receptor) | IC50 (Nitric oxide synthase 1) | IC50 [2] | IC50 [3] | IC50 [4] | Ki [4]

O=c1[nH]c2ccccc2n1CCCN1CCC(n2c(=O)[nH]c3cc(Cl)ccc32)CC1 [DOMPERIDONE]
Not Active: IC50 (Nitric oxide synthase 1) | IC50 [2] | IC50 [3]

Nc1nc2c(c(=O)[nH]1)N(C=O)C(CNc1ccc(C(=O)N[C@@H](CCC(=O)O)C(=O)O)cc1)CN2 (stereo partly drawn) [LEUCOVORIN]
Not Active: IC50 [1] | Ki [1] | IC50 (D(3) dopamine receptor) | IC50 (Nitric oxide synthase 1) | IC50 [2] | IC50 [3] | IC50 [4] | Ki [4]

C[C@@H](O)[C@H]1C(=O)N2C(C(=O)O)=C(S[C@@H]3CN[C@H](C(=O)N(C)C)C3)[C@H](C)[C@H]12 [MEROPENEM]
Not Active: IC50 [1] | Ki [1] | IC50 (D(3) dopamine receptor) | IC50 (Nitric oxide synthase 1) | IC50 [2] | IC50 [3] | IC50 [4] | Ki [4]

CCN(CC)CC#CCOC(=O)C(O)(c1ccccc1)C1CCCCC1 (stereo not drawn) [OXYBUTYNIN]
Not Active: IC50 (Nitric oxide synthase 1) | IC50 [2] | IC50 [3]

C=C(C)[C@H]1Cc2c(ccc3c2O[C@@H]2COc4cc(OC)c(OC)cc4[C@@H]2C3=O)O1 [ROTENONE]
Not Active: IC50 [1] | Ki [1] | IC50 (D(3) dopamine receptor) | IC50 (Nitric oxide synthase 1) | IC50 [2] | IC50 [3] | IC50 [4] | Ki [4]

Nc1ccc(S(=O)(=O)Nc2ncccn2)cc1 [SULFADIAZINE]
Not Active: IC50 [1] | Ki [1] | IC50 (D(3) dopamine receptor) | IC50 (Nitric oxide synthase 1) | IC50 [2] | IC50 [3] | IC50 [4] | Ki [4]

CC(C)(C)NC[C@H](O)COc1nsnc1N1CCOCC1 [TIMOLOL]
Not Active: IC50 [1] | Ki [1] | IC50 (D(3) dopamine receptor) | IC50 (Nitric oxide synthase 1) | IC50 [2] | IC50 [3] | IC50 [4] | Ki [4]

O=c1n(CCCN2CCN(c3cccc(Cl)c3)CC2)nc2ccccn12 [TRAZODONE]
Not Active: IC50 (Nitric oxide synthase 1) | IC50 [2] | IC50 [3]

O=C(O)C(Cl)(Cl)Cl [TRICHLOROACETIC ACID]
Not Active: IC50 [1] | Ki [1] | IC50 (D(3) dopamine receptor) | IC50 (Nitric oxide synthase 1) | IC50 [2] | IC50 [3] | IC50 [4] | Ki [4]

Reference: ChEMBL document CHEMBL1909046, “DrugMatrix in vitro pharmacology data”
